Measurements as given in patent US20230219963A1, “PYRROLO[2,3-D]PYRIMIDINE DERIVATIVES” (Pfizer Inc., priority 2020, published 2023).

How the values were obtained:
IFNa induced pSTAT3 = experiment: IFNα-induced pSTAT3 in human whole blood (lymphocytes); format: cell-based; details: Lymphocyte, JAK1/TYK2, read-out: IFNa induced pSTAT3, cellular potency IC50
Description: (§1) Human whole blood was collected from healthy donors via vein puncture into Vacutainer collection tubes containing sodium heparin in accordance with Pfizer protocols (Protocol No. GOHW RDP-01) approved by the Shulman Institutional Review Board. Blood was warmed to 37° C. priorto use. Human whole blood was aliquoted (90 μL/well) in 96-well, deep-well, V-bottom plates and treated with compounds (5 μL/well) at different concentrations up to 60 μM (0.2% DMSO final) at 37° C. for 60 minutes. This was followed by a challenge with IFNα (5000 U/mL), IFNγ (100 ng/mL), IL-6 (50 ng/mL), IL-10 (30 ng/mL), IL-12 (30 ng/mL), IL-15 (30 ng/mL), IL-21 (50 ng/mL), IL-23 (25 ng/mL), IL-27 (1000 ng/mL), EPO (2 U/mL), TSLP (50 ng/mL) or PBS and incubated for 15 minutes. Anti-cell surface antibodies were added 15 minutes prior to cytokine stimulation; anti-CD3-BV421 (0.5 μL/well) to IL-6-treated and TSLP-treated samples and anti-CD14-BV421 (0.5 μL/well) to IFNγ-treated samples. Samples were treated with warm 1×Lyse/Fix buffer (700 μL/well) to terminate activation and further incubated at 37° C. for 20 minutes to lyse red blood cells. Plates were centrifuged at 300×g for 5 minutes, supernatant was aspirated, and cells were washed with 800 μL/well of staining buffer (D-PBS containing 0.1% FBS and 0.01% sodium azide). Washed cell pellets were resuspended in 350 μL/well of prechilled 90% methanol and incubated at 4° C. for 30 minutes. After the removal of 90% methanol, cells were washed once with staining buffer. […]
(§2) After overnight incubation at 4° C., anti-pSTAT stained samples were transferred into 96-well polypropylene U-bottom plates and flow cytometric analysis was performed on a LSR Fortessa™ equipped with a HTS plate loader. […] Background fluorescence was defined using unstimulated cells and a gate was placed at the foot of the peak to include ˜0.5% gated population. […]

EPO induced pSTAT5 = experiment: EPO-induced pSTAT5 in human whole blood (all events); format: cell-based; details: JAK2/JAK2, read-out: EPO induced pSTAT5, cellular potency IC50
Description: as §1, with “buffer. All samples were finally suspended in 150 μL/well of the desired anti-phospho-STAT antibodies at 1:150 dilution in staining buffer; anti-pSTAT1-AF647 in IFNγ treated samples; anti-pSTAT1-AF488 and anti-pSTAT3-AF647 in IL-6-treated samples, anti-pSTAT3-AF647 in IFNα, IL-10, IL-21, IL-23 and IL-27 treated samples, anti-pSTAT4-AF647 in IL-12 treated samples, anti-pSTAT5-AF-647 in EPO, IL-15 and TSLP-treated samples. Human primary keratinocytes were cultured in DermaLife™ medium with supplement kit to expand cell population. Cell passages 2 to 5 were used in the assays. Cells were harvested at ˜80% confluence, suspended in warm DermaLife™ medium, aliquoted (90 μL/well) in 96-well, deep-well, V-bottom plates, and incubated at 37° C. for 30 minutes. Cells were then treated with compounds (0.0003 to 20 μM) for 60 minutes and followed by stimulation with IL-4 (2 ng/mL) or IL-13 (20 ng/mL) at 37° C. for 15 minutes.” for “buffer.”
as §2

IL-23 induced pSTAT3 = experiment: IL-23-induced pSTAT3 in human whole blood (lymphocytes); format: cell-based; details: Lymphocyte, JAK2/TYK2, read-out: IL-23 induced pSTAT3, cellular potency IC50
Description: as §1, with “buffer. All samples were finally suspended in 150 μL/well of the desired anti-phospho-STAT antibodies at 1:150 dilution in staining buffer; anti-pSTAT1-AF647 in IFNγ treated samples; anti-pSTAT1-AF488 and anti-pSTAT3-AF647 in IL-6-treated samples, anti-pSTAT3-AF647 in IFNα, IL-10, IL-21, IL-23 and IL-27 treated samples, anti-pSTAT4-AF647 in IL-12 treated samples, anti-pSTAT5-AF-647 in EPO, IL-15 and TSLP-treated samples. Human primary keratinocytes were cultured in DermaLife™ medium with supplement kit to expand cell population. Cell passages 2 to 5 were used in the assays. Cells were harvested at ˜80% confluence, suspended in warm DermaLife™ medium, aliquoted (90 μL/well) in 96-well, deep-well, V-bottom plates, and incubated at 37° C. for 30 minutes. Cells were then treated with compounds (0.0003 to 20 μM) for 60 minutes and followed by stimulation with IL-4 (2 ng/mL) or IL-13 (20 ng/mL) at 37° C. for 15 minutes.” for “buffer.”
as §2

IL-15 induced pSTAT5 = experiment: IL-15-induced pSTAT5 in human whole blood (lymphocytes); format: cell-based; details: Lymphocyte, JAK1/JAK3, read-out: IL-15 induced pSTAT5, cellular potency IC50
Description: as §1, with “buffer. All samples were finally suspended in 150 μL/well of the desired anti-phospho-STAT antibodies at 1:150 dilution in staining buffer; anti-pSTAT1-AF647 in IFNγ treated samples; anti-pSTAT1-AF488 and anti-pSTAT3-AF647 in IL-6-treated samples, anti-pSTAT3-AF647 in IFNα, IL-10, IL-21, IL-23 and IL-27 treated samples, anti-pSTAT4-AF647 in IL-12 treated samples, anti-pSTAT5-AF-647 in EPO, IL-15 and TSLP-treated samples. Human primary keratinocytes were cultured in DermaLife™ medium with supplement kit to expand cell population. Cell passages 2 to 5 were used in the assays. Cells were harvested at ˜80% confluence, suspended in warm DermaLife™ medium, aliquoted (90 μL/well) in 96-well, deep-well, V-bottom plates, and incubated at 37° C. for 30 minutes. Cells were then treated with compounds (0.0003 to 20 μM) for 60 minutes and followed by stimulation with IL-4 (2 ng/mL) or IL-13 (20 ng/mL) at 37° C. for 15 minutes.” for “buffer.”
as §2

IL-27 induced pSTAT3 = experiment: IL-27-induced pSTAT3 in human whole blood (lymphocytes); format: cell-based; details: Lymphocyte, JAK1/JAK2, read-out: IL-27 induced pSTAT3, cellular potency IC50
Description: as §1, with “buffer. All samples were finally suspended in 150 μL/well of the desired anti-phospho-STAT antibodies at 1:150 dilution in staining buffer; anti-pSTAT1-AF647 in IFNγ treated samples; anti-pSTAT1-AF488 and anti-pSTAT3-AF647 in IL-6-treated samples, anti-pSTAT3-AF647 in IFNα, IL-10, IL-21, IL-23 and IL-27 treated samples, anti-pSTAT4-AF647 in IL-12 treated samples, anti-pSTAT5-AF-647 in EPO, IL-15 and TSLP-treated samples. Human primary keratinocytes were cultured in DermaLife™ medium with supplement kit to expand cell population. Cell passages 2 to 5 were used in the assays. Cells were harvested at ˜80% confluence, suspended in warm DermaLife™ medium, aliquoted (90 μL/well) in 96-well, deep-well, V-bottom plates, and incubated at 37° C. for 30 minutes. Cells were then treated with compounds (0.0003 to 20 μM) for 60 minutes and followed by stimulation with IL-4 (2 ng/mL) or IL-13 (20 ng/mL) at 37° C. for 15 minutes.” for “buffer.”
as §2

IL-10 induced pSTAT3 = experiment: IL-10-induced pSTAT3 in human whole blood (lymphocytes); format: cell-based; details: Lymphocyte, JAK1/TYK2, read-out: IL-10 induced pSTAT3, cellular potency IC50
Description: as §1, with “buffer. All samples were finally suspended in 150 μL/well of the desired anti-phospho-STAT antibodies at 1:150 dilution in staining buffer; anti-pSTAT1-AF647 in IFNγ treated samples; anti-pSTAT1-AF488 and anti-pSTAT3-AF647 in IL-6-treated samples, anti-pSTAT3-AF647 in IFNα, IL-10, IL-21, IL-23 and IL-27 treated samples, anti-pSTAT4-AF647 in IL-12 treated samples, anti-pSTAT5-AF-647 in EPO, IL-15 and TSLP-treated samples. Human primary keratinocytes were cultured in DermaLife™ medium with supplement kit to expand cell population. Cell passages 2 to 5 were used in the assays. Cells were harvested at ˜80% confluence, suspended in warm DermaLife™ medium, aliquoted (90 μL/well) in 96-well, deep-well, V-bottom plates, and incubated at 37° C. for 30 minutes. Cells were then treated with compounds (0.0003 to 20 μM) for 60 minutes and followed by stimulation with IL-4 (2 ng/mL) or IL-13 (20 ng/mL) at 37° C. for 15 minutes.” for “buffer.”
as §2

TYK2 = TYK2 (Homo sapiens, UniProt P29597); experiment: JAK Caliper Enzyme Assay at 1 mM ATP (TYK2); format: biochemical
Sequence of TYK2 (P29597 whole entry): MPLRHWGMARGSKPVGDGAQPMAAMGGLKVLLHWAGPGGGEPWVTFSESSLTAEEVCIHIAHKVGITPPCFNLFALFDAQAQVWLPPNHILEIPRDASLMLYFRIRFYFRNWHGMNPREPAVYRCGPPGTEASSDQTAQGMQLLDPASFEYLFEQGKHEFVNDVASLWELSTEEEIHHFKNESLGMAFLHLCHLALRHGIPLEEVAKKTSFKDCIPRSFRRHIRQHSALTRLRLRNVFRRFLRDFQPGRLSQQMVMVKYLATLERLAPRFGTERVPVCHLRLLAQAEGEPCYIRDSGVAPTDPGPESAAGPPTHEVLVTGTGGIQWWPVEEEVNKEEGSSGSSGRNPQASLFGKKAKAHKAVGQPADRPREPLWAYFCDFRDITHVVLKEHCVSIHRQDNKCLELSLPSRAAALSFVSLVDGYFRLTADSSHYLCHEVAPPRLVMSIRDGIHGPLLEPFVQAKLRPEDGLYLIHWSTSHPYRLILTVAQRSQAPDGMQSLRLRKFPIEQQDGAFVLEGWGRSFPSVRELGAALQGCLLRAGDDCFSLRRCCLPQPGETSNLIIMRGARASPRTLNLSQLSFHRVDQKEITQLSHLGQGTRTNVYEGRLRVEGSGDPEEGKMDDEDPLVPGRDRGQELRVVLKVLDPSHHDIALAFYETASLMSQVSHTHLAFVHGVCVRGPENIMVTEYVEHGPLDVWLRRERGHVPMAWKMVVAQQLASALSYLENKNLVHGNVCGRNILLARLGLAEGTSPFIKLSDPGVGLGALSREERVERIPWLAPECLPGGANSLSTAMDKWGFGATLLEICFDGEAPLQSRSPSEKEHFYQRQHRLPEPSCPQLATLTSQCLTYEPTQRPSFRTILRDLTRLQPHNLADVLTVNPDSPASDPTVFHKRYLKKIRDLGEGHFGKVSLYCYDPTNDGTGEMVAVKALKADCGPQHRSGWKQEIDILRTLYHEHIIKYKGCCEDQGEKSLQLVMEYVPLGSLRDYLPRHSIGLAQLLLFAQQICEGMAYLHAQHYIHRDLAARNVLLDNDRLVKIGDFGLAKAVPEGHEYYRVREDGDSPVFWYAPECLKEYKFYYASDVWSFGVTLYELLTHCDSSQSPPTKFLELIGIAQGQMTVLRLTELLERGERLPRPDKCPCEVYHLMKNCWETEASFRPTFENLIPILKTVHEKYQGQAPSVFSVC
Description: JAK Caliper Enzyme Assay at 1 mM ATP
Test article was solubilized in dimethyl sulfoxide (DMSO) to a stock concentration of 30 mM. An 11-point half log dilution series was created in DMSO with a top concentration of 600 μM. […] The compound plates were diluted 1 to 60 resulting in a top final assay compound concentration of 10 μM and a 2% DMSO concentration. Test article and assay controls were added to a 384-well plate. Reaction mixtures contained 20 mM HEPES, pH 7.4, 10 mM magnesium chloride, 0.01% bovine serum albumin (BSA), 0.0005% Tween 20, 1 mM ATP and 1 μM peptide substrate. […] The assays were initiated by the addition of 20 nM JAK1, 1 nM JAK2, 1 nM JAK3 or 1 nM TYK2 enzyme and were incubated at room temperature for three hours for JAK1, 60 minutes for JAK2, 75 minutes for JAK3 or 135 minutes for TYK2. Enzyme concentrations and incubation times were optimized for each new enzyme preps and were modified slightly over time to ensure 20%-30% phosphorylation. The assays were stopped with a final concentration of 10 mM EDTA, 0.1% Coating Reagent and 100 mM HEPES, pH=7.4. The assay plates were placed on a Caliper Life Science Lab Chip 3000 (LC3000) instrument, and each well was sampled using appropriate separation conditions to measure the unphosphorylated and phosphorylated peptide.

IC50 (IFNa induced pSTAT3)	IC50 (EPO induced pSTAT5)	IC50 (IL-23 induced pSTAT3)	IC50 (IL-15 induced pSTAT5)	IC50 (IL-27 induced pSTAT3)	IC50 (IL-10 induced pSTAT3)	IC50 (TYK2)	Compound
90.5 nM	9470 nM	6210 nM	353 nM	234 nM	233 nM	1210 nM	C[C@H](O)CS(=O)(=O)N[C@H]1C[C@@H](N(C)c2ncnc3[nH]ccc23)C1 (single isomer, unassigned) [IA (M2)]
225 nM	18100 nM	13800 nM	800 nM	572 nM	488 nM	3420 nM	C[C@@H](O)CS(=O)(=O)N[C@H]1C[C@@H](N(C)c2ncnc3[nH]ccc23)C1 (single isomer, unassigned) [IC (M3)]
296 nM	9750 nM	26200 nM	558 nM	382 nM	675 nM	3190 nM	CN(c1ncnc2[nH]ccc12)[C@H]1C[C@@H](NS(=O)(=O)CCCO)C1 [IB (M1), 3-Hydroxy-N-(cis-3-(methyl(7H-pyrrolo[2,3-d]pyrimidin-4-yl)amino)cyclobutyl)propane-1-sulfonamide]
